Patent publication US10501518B2 (priority 2013, dated 2019)
“Also recorded” adds a separate entry of the source.

Experiments:
[1] = In vivo pharmacokinetics: peptide content of mouse plasma by cAMP GloSensor assay; details: mice, subcutaneous injection, 20 nmol/kg
Procedure: (§1) Compound concentrations were determined by submitting plasma to a cAMP GloSensor assay, quantification of luminescence readout, and conversion to peptide concentration via standard curve. […] See also FIGS. 12A, 12B and 12C.
FIG. 12 B is a magnification of FIG. 12A to highlight the data from early time points. FIG. 12 C is a dose-response curve used to convert the raw luminescence time course found in FIG. 12A to the peptide concentration time course found in FIG. 3B. This curve was generated from a single assay run immediately before assessing the raw luminescence time course.
Blood was withdrawn just prior to injection (t=0) or at times thereafter. Tail vein blood was collected and treated with protease inhibitors (aprotinin, leupeptin, EDTA), centrifuged to remove blood cells, mixed with cAMP response assay buffer, and administered to GP2.3 cells. The raw luminescence readouts recorded in this assay were converted to blood peptide concentrations through use of a standard curve relating luminescence response to known peptide concentrations under identical assay conditions.

[2] = Calcemic response in mice after subcutaneous injection; assay type: in vivo; details: 20 nmol/kg
Procedure: as §1
Mice (C57BL/6, male, age 9-12 weeks) were treated in accordance with the ethical guidelines adopted by Massachusetts General Hospital. […] Blood was withdrawn just prior to injection (t=0) or at times thereafter. Tail vein blood was collected and immediately used for analysis. Blood Ca^2+ concentration was measured with a Chiron Diagnostics model 634 Ca^2+/pH analyzer.

WT rat PTHR-1 = biological target: T1, WT rat PTHR-1 (Rattus norvegicus, UniProt P25961); experiment: cAMP GloSensor dose-response in GR-35 cells expressing rat PTHR-1; assay type: cell-based; details: for cAMP (rPTHR-1) Max / EC50: Table 2; for cAMP (rPTHR-1) Max: luminescence counts per second relative to PTH(1-34); for cAMP (rPTHR-1) Max / Max: 12-16 minutes after ligand addition; for Max / Fold nM PTH(1-34): Table 7; for Max: GR-35 cells, mean ± SEM; for EC50: read-out: cAMP (rPTHR-1) EC50; for Fold nM PTH(1-34): EC50 relative to PTH(1-34)
T1 construct: expressed in transfected cells
T1 sequence (P25961 27-591): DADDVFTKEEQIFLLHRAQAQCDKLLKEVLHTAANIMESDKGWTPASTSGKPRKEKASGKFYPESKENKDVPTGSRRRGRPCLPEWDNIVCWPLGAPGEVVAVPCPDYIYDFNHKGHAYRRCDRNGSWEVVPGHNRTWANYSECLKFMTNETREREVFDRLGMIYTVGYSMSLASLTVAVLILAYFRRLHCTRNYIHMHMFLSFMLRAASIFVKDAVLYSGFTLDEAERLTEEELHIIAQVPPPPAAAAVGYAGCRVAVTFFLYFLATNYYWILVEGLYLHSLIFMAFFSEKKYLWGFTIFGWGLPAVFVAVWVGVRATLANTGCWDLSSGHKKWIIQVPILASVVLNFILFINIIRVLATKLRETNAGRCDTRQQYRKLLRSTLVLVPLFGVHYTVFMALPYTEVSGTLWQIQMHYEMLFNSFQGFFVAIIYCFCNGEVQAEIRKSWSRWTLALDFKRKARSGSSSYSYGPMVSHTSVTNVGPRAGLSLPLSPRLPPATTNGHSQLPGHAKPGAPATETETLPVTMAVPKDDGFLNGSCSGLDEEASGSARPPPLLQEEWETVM

WT human PTHR-1 = biological target: T2, WT human PTHR-1 (Homo sapiens, UniProt Q03431); experiment: cAMP GloSensor dose-response in GP-2.3 cells expressing human PTHR-1; assay type: cell-based; details: for cAMP (hPTHR-1) Max: luminescence counts per second relative to PTH(1-34); for cAMP (hPTHR-1) Max / Max: 12-16 minutes after ligand addition; for Fold nM PTH(1-34): EC50 relative to PTH(1-34)
T2 construct: bioactivity of the resulting compound in full-length hPTHR-1 and a truncated version; expressed in transfected cells
T2 sequence (Q03431 27-593): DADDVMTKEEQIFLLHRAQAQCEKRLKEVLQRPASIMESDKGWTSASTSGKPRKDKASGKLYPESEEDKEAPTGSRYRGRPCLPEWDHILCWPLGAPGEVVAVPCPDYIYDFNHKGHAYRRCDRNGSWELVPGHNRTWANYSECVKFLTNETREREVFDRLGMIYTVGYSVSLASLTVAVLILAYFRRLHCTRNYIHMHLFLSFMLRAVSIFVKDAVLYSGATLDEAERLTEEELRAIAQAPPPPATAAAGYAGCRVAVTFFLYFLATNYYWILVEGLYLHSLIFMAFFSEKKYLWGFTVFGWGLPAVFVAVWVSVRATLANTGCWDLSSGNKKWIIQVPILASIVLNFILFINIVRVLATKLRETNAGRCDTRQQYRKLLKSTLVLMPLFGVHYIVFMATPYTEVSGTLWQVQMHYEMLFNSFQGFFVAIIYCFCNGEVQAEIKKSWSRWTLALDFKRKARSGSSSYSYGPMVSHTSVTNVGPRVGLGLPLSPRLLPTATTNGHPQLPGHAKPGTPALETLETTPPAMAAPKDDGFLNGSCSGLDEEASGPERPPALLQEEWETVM
Method in brief: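 Confluent cells preloaded with 0.5 mM d-luciferin at room temperature until luminescence baseline stabilised (30 min), then given varying agonist concentrations. Luminescence time course recorded after α/β-peptide addition. Means ±SEM of n>4 experiments, each in duplicate.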

[3] = Table 6, GP-2.3 cells, mean ± SEM

## CC[C@H](C)[C@H](NC(=O)[C@H](CCC(=O)O)NC(=O)[C@H](CO)NC(=O)[C@@H](NC(=O)[C@@H](N)CO)C(C)C)C(=O)N[C@@H](CCC(N)=O)C(=O)N[C@@H](CC(C)C)C(=O)N[C@@H](CCSC)C(=O)N[C@@H](Cc1cnc[nH]1)C(=O)N[C@@H](CC(N)=O)C(=O)N[C@@H](CC(C)C)C(=O)NCC(=O)N[C@@H](CCCCN)C(=O)N[C@@H](Cc1cnc[nH]1)C(=O)N[C@@H](CC(C)C)C(=O)N[C@@H](CC(N)=O)C(=O)N[C@@H](CO)C(=O)N[C@@H](CCSC)C(=O)N[C@@H](CCC(=O)O)C(=O)N[C@@H](CCCN=C(N)N)C(=O)N[C@H](C(=O)N[C@@H](CCC(=O)O)C(=O)N[C@@H](Cc1c[nH]c2ccccc12)C(=O)N[C@@H](CC(C)C)C(=O)N[C@@H](CCCN=C(N)N)C(=O)N[C@@H](CCCCN)C(=O)N[C@@H](CCCCN)C(=O)N[C@@H](CC(C)C)C(=O)N[C@@H](CCC(N)=O)C(=O)N[C@@H](CC(=O)O)C(=O)N[C@H](C(=O)N[C@@H](Cc1cnc[nH]1)C(=O)N[C@@H](CC(N)=O)C(=O)N[C@@H](Cc1ccccc1)C(=O)O)C(C)C)C(C)C [PTH(1-34), reference compound]
[1]
  level / persistence in the mouse bloodstream: consistently lower than the level of B5
[2]
  calcemic response (blood Ca^2+ concentration): transient rise in the blood concentration of Ca^2+, which peaks after about one hour
WT rat PTHR-1
  cAMP (rPTHR-1) Max: 1.00
  Max: 65 ± 31 luminescence counts per second × 10−3
WT human PTHR-1; Table 1
  cAMP (hPTHR-1) Max: 1.00
WT human PTHR-1; [3]
  Max: 217 ± 20 luminescence counts per second × 10^−3

## CC[C@H](C)[C@H](NC(=O)[C@H](CCC(=O)O)NC(=O)[C@H](CO)NC(=O)[C@@H](NC(=O)[C@@H](N)CO)C(C)C)C(=O)N[C@@H](CCC(N)=O)C(=O)N[C@@H](CC(C)C)C(=O)N[C@@H](CCSC)C(=O)N[C@@H](Cc1cnc[nH]1)C(=O)N[C@@H](CC(N)=O)C(=O)N[C@@H](CC(C)C)C(=O)NCC(=O)N[C@@H](CCCCN)C(=O)N[C@H](CC(=O)N[C@@H](CC(C)C)C(=O)N[C@@H](CC(N)=O)C(=O)N[C@@H](CO)C(=O)N[C@@H](CCSC)CC(=O)N[C@@H](CCC(=O)O)C(=O)N[C@@H](CCCNC(=N)N)C(=O)N[C@H](C(=O)N[C@@H](CCC(=O)O)CC(=O)N[C@@H](Cc1c[nH]c2ccccc12)C(=O)N[C@@H](CC(C)C)C(=O)N[C@@H](CCCNC(=N)N)C(=O)N[C@@H](CCCCN)CC(=O)N[C@@H](CCCCN)C(=O)N[C@@H](CC(C)C)C(=O)N[C@@H](CCC(N)=O)C(=O)N[C@@H](CC(=O)O)CC(=O)N[C@H](C(=O)N[C@@H](Cc1cnc[nH]1)C(=O)N[C@@H](CC(N)=O)C(=O)N[C@H](CC(N)=O)Cc1ccccc1)C(C)C)C(C)C)Cc1c[nH]c2ccccc12 [D6]
[1]
  level / persistence in the mouse bloodstream: persists even longer in the bloodstream than does B5; also recorded: persists much longer in the mouse bloodstream than does PTH(1-34)
[2]
  calcemic response (blood Ca^2+ concentration): sustained, with no diminution six hours after injection
WT rat PTHR-1
  cAMP (rPTHR-1) Max: 0.76
  EC50: 0.33 nM
  Fold nM PTH(1-34): 0.79
  Max: 50 ± 15 luminescence counts per second × 10−3
WT human PTHR-1; Table 1
  cAMP (hPTHR-1) Max: 0.87
WT human PTHR-1; Table 6
  Fold nM PTH(1-34): 0.76
WT human PTHR-1; [3]
  Max: 189 ± 29 luminescence counts per second × 10^−3
  pEC50: 9.89 ± 0.08

## CC[C@H](C)[C@H](NC(=O)[C@H](CCC(=O)O)NC(=O)[C@H](CO)NC(=O)[C@@H](NC(=O)[C@@H](N)CO)C(C)C)C(=O)N[C@@H](CCC(N)=O)C(=O)N[C@@H](CC(C)C)C(=O)N[C@@H](CCSC)C(=O)N[C@@H](Cc1c[nH]cn1)C(=O)N[C@@H](CC(N)=O)C(=O)N[C@@H](CC(C)C)C(=O)NCC(=O)N[C@@H](CCCCN)C(=O)N[C@@H](Cc1c[nH]cn1)C(=O)N[C@@H](CC(C)C)C(=O)N[C@@H](CC(N)=O)CC(=O)N[C@@H](CO)C(=O)N[C@@H](CCSC)C(=O)N[C@@H](CCC(=O)O)C(=O)N[C@@H](CCCNC(=N)N)CC(=O)N[C@H](C(=O)N[C@@H](CCC(=O)O)C(=O)N[C@@H](Cc1c[nH]c2ccccc12)C(=O)N[C@H](CC(=O)N[C@@H](CCCNC(=N)N)C(=O)N[C@@H](CCCCN)C(=O)N[C@@H](CCCCN)C(=O)N[C@H](CC(=O)N[C@@H](CCC(N)=O)C(=O)N[C@@H](CC(=O)O)C(=O)N[C@H](C(=O)N[C@@H](CCC(N)=O)CC(=O)N[C@@H](CC(N)=O)C(=O)N[C@@H](Cc1ccccc1)C(N)=O)C(C)C)CC(C)C)CC(C)C)C(C)C [B5]
[1]
  level / persistence in the mouse bloodstream: prolonged bioavailability
[2]
  calcemic response (blood Ca^2+ concentration): more transient rise in Ca^2+ concentration relative to PTH(1-34)
WT rat PTHR-1
  cAMP (rPTHR-1) Max: 0.78
  EC50: 1.45 nM
  Fold nM PTH(1-34): 3.49
  Max: 51 ± 21 luminescence counts per second × 10−3
WT human PTHR-1; Table 1, GP-2.3 cells, read-out: cAMP (hPTHR-1) EC50
  EC50: 0.11 nM
WT human PTHR-1; Table 1
  cAMP (hPTHR-1) Max: 0.98
WT human PTHR-1; Table 6
  Fold nM PTH(1-34): 0.63
WT human PTHR-1; [3]
  Max: 212 ± 30 luminescence counts per second × 10^−3
